Experimental data reported in ChEMBL document CHEMBL4673337, “Phenolic Constituents of the Roots of Rhamnoneuron balansae with Senolytic Activity” (J Nat Prod, 2020).
Calls of active or inactive are those of the source. The calls are words filed in the database; no cut-off is given here.

Tests used:
[1] = tested on: NHDF; test: Cytotoxicity against human dermal fibroblast assessed as reduction in cell viability at 20 uM after 3 days by MTT assay; assay type: cell-based; settings: 72 h, time 3 day
[2] = biological target: T1, Cyclin-dependent kinase inhibitor 2A (Homo sapiens) (UniProt P42771); test: Inhibition of GFP-tagged p16INK4A (unknown orgin) expressed in human dermal fibroblast at 20 uM after 24 hrs by renilla/firefly dual-luciferase reporter assay relative to control; assay type: cell-based; settings: NHDF
T1 sequence (whole entry): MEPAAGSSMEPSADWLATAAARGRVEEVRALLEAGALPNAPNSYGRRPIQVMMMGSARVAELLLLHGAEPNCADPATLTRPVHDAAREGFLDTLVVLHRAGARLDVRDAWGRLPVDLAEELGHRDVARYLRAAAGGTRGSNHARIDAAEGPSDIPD

[3] = tested on: NHDF; test: Senolytic activity in 35 passages senescent human dermal fibroblast cells assessed as reduction cell viability at 20 uM after 3 days by MTT assay relative to control; assay type: functional

Row | SMILES | Activity [1] | also measured
1 | O=C1c2c(cc(O[C@@H]3O[C@H](CO)[C@@H](O)[C@H](O)[C@H]3O)c3c2O[C@H](c2ccc(O)cc2)[C@H]3c2cc(O)cc(O)c2)O[C@H](c2ccc(O)c(O)c2)[C@H]1O | Non-Toxic | –
2 | O=C1c2c(cc(O)c3c2O[C@H](c2ccc(O[C@@H]4O[C@H](CO)[C@@H](O)[C@H](O)[C@H]4O)cc2)[C@H]3c2cc(O)cc(O)c2)O[C@@H](c2ccc(O)c(O)c2)[C@@H]1O | Non-Toxic | –
3 | O=C1C[C@@H](CCc2cccc(O)c2)Oc2ccccc21 | Non-Toxic | –
4 | COc1cc(CCc2oc3ccccc3c(=O)c2OC)ccc1O | Non-Toxic | –
5 | COc1cc(CCc2oc3ccccc3c(=O)c2O)ccc1O | Non-Toxic | –
6 | COc1c(CCc2cccc(O)c2)oc2ccccc2c1=O | Non-Toxic | –
7 | O=C1c2c(cc(O)c3c(-c4cc(O)cc(O)c4)c(-c4ccc(O)cc4)oc23)O[C@@H](c2ccc(O)cc2)[C@@H]1O | Non-Toxic | inhibition [2]: 32%; Activity ([3]; time 3 day): 34%
8 | COc1cc(CC[C@@H]2CC(=O)c3ccccc3O2)ccc1O | Non-Toxic | Activity ([3]; time 3.0 day): Active
9 | O=C1c2c(cc(O)c3c2O[C@H](c2ccc(O)cc2)[C@H]3c2cc(O)cc(O)c2)O[C@@H](c2ccc(O)cc2)[C@@H]1O | Non-Toxic | –
10 | O=C1c2c(cc(O)c3c2O[C@H](c2ccc(O)cc2)[C@H]3c2cc(O)cc(O)c2)O[C@@H](c2ccc(O)c(O)c2)[C@@H]1O | Non-Toxic | –
11 | O=C1C[C@@H](CCc2ccc(O)cc2)Oc2ccccc21 | Non-Toxic | Activity ([3]; time 3.0 day): Active
12 | O=C1c2c(cc(O[C@@H]3O[C@H](CO)[C@@H](O)[C@H](O)[C@H]3O)c3c2O[C@H](c2ccc(O)cc2)[C@H]3c2cc(O)cc(O)c2)O[C@@H](c2ccc(O)c(O)c2)[C@@H]1O | Non-Toxic | –
